In general, IC50 refers to the concentration that gives 50% inhibition.

The structures appear in SMILES notation. Calls of active or inactive are those of the source. The calls are words filed in the database; no cut-off is given here. Bounds are passed on as bounds.

Assay [1] relates to HBZY-1. As to the kind of experiment: Cytotoxicity against rat HBZY-1 cells assessed as reduction in cell viability after 2 hrs by MTT assay. In kind it is cell-based. The following applies: HBZY-1, 2 h. (In general: Tetrazolium assays rely on reduction of a dye to a coloured formazan, in cell work by metabolically active cells.)
Assay [2] deals with HBZY-1. As to the kind of experiment: Cytoprotection activity against H2O2-induced cell death in rat HBZY-1 cells assessed as cell viability at 6 uM preincubated with compound for 2 hrs followed by H2O2 addition and measured after 24 hrs by MTT assay (reference value: 62.1%). It is filed as functional. Particulars: read-out: Activity.
In assay [3] the target is T1, Nuclear factor erythroid 2-related factor 2 (Homo sapiens) (UniProt Q16236).
T1 sequence (whole entry): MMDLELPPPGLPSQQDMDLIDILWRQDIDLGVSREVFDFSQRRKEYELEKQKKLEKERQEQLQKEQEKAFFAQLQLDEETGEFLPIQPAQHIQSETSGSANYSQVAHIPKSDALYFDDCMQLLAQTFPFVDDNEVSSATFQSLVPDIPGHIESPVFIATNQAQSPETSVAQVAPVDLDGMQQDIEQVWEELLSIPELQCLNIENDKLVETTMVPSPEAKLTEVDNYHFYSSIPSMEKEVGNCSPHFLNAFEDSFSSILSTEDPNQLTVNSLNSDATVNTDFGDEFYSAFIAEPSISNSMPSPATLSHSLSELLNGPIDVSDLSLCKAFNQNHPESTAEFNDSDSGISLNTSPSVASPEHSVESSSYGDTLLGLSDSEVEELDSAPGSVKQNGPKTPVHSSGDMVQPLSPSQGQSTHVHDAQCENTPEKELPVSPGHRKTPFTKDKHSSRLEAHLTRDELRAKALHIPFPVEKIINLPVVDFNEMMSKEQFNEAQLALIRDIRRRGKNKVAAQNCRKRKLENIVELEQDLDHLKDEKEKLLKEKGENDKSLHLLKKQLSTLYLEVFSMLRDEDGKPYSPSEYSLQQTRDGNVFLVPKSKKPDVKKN
The assay is described as follows: Activation of Nrf2 (unknown origin) expressed in HEK293 cells co-transfected with ARE luciferase reporter plasmid at 20 uM after 16 hrs by dual luciferase reporter gene assay. It is filed as cell-based.

The target of assay [4] is Kelch-like ECH-associated protein 1 (Rattus norvegicus) (UniProt P57790). The assay is described as follows: Binding affinity to Keap1 in rat HBZY-1 cells transfected with pNF-kB-Luc/pRL-CMV assessed as induction of Keap1/Nrf2 signaling by measuring reduction in LPS-induced NFkappaB activation at 6 uM preincubated for 30 mins followed by LPS stimulation and measured after 12 hrs in presence of HO-1 inhibitor ZnPP by luciferase reporter gene assay. In kind it is cell-based. (In general: Reporter assays use an easily measured gene product as a stand-in for the process of interest.)
Chain of Kelch-like ECH-associated protein 1 (Rattus norvegicus) (P57790 whole entry): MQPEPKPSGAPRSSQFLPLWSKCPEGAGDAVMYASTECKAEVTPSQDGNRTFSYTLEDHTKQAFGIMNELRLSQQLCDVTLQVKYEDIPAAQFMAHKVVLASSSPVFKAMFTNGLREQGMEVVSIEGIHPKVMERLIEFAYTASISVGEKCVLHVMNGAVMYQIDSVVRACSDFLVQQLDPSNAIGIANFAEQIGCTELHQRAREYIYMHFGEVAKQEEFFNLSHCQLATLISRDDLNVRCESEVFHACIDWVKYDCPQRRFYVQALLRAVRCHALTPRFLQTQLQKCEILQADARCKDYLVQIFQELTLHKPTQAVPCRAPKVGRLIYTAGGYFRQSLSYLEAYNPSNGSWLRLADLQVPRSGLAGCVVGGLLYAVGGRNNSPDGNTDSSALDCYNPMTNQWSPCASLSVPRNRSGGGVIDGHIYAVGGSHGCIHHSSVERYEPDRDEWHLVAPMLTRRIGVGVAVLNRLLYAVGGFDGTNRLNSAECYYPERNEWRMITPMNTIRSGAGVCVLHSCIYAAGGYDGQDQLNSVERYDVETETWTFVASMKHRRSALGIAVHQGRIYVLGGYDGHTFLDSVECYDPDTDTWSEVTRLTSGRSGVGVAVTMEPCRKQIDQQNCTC

Assay [5] shares this target. As to the kind of experiment: Binding affinity to Keap1 in rat HBZY-1 cells assessed as induction of Nrf2 nuclear translocation by measuring increase in ratio of nuclear to cytosolic Nrf2 level by Western blot analysis. It is filed as cell-based. In general terms: Immunoblotting shows a protein as a band on a membrane.
The target is the same in assay [6]. As to the kind of experiment: Binding affinity to Keap1 in rat HBZY-1 cells assessed as induction of Keap1/Nrf2 signaling by measuring increase in GCLM protein expression by Western blot analysis. In kind it is cell-based.
The subject of assay [7] is HBZY-1. As to the kind of experiment: Antioxidant activity in rat HBZY-1 cells assessed as reduction in H2O2-induced intracellular ROS accumulation incubated with compound prior to H2O2 addition by DCFH-DA based flow cytometry. It is filed as functional, cell-based.
The target in assay [8] is Kelch-like ECH-associated protein 1 (Rattus norvegicus) (UniProt P57790). The assay is described as follows: Binding affinity to Keap1 in rat HBZY-1 cells assessed as disruption of Keap1/Nrf2 complex by measuring Keap1 expression in presence of DTT by Western blot analysis. It is filed as cell-based.
For assay [9] the target is unchanged. As to the kind of experiment: Binding affinity to Keap1 in rat HBZY-1 cells transfected with pNF-kB-Luc/pRL-CMV assessed as induction of Keap1/Nrf2 signaling by measuring reduction in LPS-induced NFkappaB activation preincubated for 30 mins followed by LPS stimulation and measured after 12 hrs by luciferase reporter gene assay. It is filed as cell-based.
For assay [10], the system named is HBZY-1. The assay is described as follows: Cytoprotection against H2O2-induced cell death in rat HBZY-1 cells assessed as increase in cell viability at 6 uM preincubated for 2 hrs followed by H2O2 addition and measured after 24 hrs in presence of HO-1 inhibitor ZnPP by MTT assay. It is filed as functional, cell-based.
Assay [11] has as its target Kelch-like ECH-associated protein 1 (Rattus norvegicus) (UniProt P57790). As to the kind of experiment: Binding affinity to Keap1 in rat HBZY-1 cells assessed as disruption of Keap1/Nrf2 complex by measuring Nrf2 expression in presence of DTT by Western blot analysis. In kind it is cell-based.
Assay [12] shares this target. As to the kind of experiment: Binding affinity to Keap1 in rat HBZY-1 cells assessed as induction of Keap1/Nrf2 signaling by measuring increase in HO-1 protein expression at 6 uM by Western blot analysis. It is filed as cell-based. The following applies: TDE = time-dependent effect.
The target is the same in assay [13]. The assay is described as follows: Binding affinity to Keap1 in rat HBZY-1 cells assessed as induction of Keap1/Nrf2 signaling by measuring increase in HO-1 protein expression by Western blot analysis. In kind it is cell-based.
Assay [14] shares this target. As to the kind of experiment: Binding affinity to Keap1 in rat HBZY-1 cells assessed as induction of Keap1/Nrf2 signaling by measuring increase in GCLC protein expression by Western blot analysis. It is filed as cell-based.
Assay [15] has the same target. As to the kind of experiment: Binding affinity to Keap1 in rat HBZY-1 cells assessed as disruption of Keap1/Nrf2 complex by measuring increase in Nrf2 expression by Western blot analysis. It is filed as cell-based.
Assay [16] shares this target. The assay is described as follows: Binding affinity to Keap1 in rat HBZY-1 cells transfected with pNF-kB-Luc/pRL-CMV assessed as induction of Keap1/Nrf2 signaling by measuring reduction in LPS-induced NFkappaB activation at 6 uM preincubated for 30 mins followed by LPS stimulation and measured after 12 hrs in presence of Nrf2 inhibitor TRG by luciferase reporter gene assay. In kind it is cell-based.

Assay [17] has the same target. As to the kind of experiment: Binding affinity to Keap1 in rat HBZY-1 cells assessed as induction of Keap1/Nrf2 signaling by measuring induction of Nrf2 nuclear translocation by measuring increase in ratio of nuclear to cytosolic Nrf2 level at 6 uM by Western blot analysis. It is filed as cell-based. Particulars: TDE = time-dependent effect.
Assay [18] has the same target. As to the kind of experiment: Binding affinity to Keap1 in rat HBZY-1 cells assessed as induction of Keap1/Nrf2 signaling by measuring increase in GCLM protein expression at 6 uM by Western blot analysis. The following applies: TDE = time-dependent effect. In kind it is cell-based.
Assay [19] shares this target. The assay is described as follows: Binding affinity to Keap1 in rat HBZY-1 cells assessed as induction of Keap1/Nrf2 signaling by measuring increase in NQO-1 protein expression at 6 uM by Western blot analysis. The following applies: TDE = time-dependent effect. In kind it is cell-based.
Assay [20] has as its system HBZY-1. As to the kind of experiment: Cytoprotection activity against H2O2-induced cell death in rat HBZY-1 cells assessed as increase in cell viability preincubated with compound for 2 hrs followed by H2O2 addition and measured after 24 hrs by MTT assay. In kind it is functional, cell-based.
Assay [21] concerns HBZY-1. The assay is described as follows: Antiinflammatory activity in rat HBZY-1 cells assessed as reduction in nitric oxide production at 6 uM preincubated for 30 mins followed by LPS stimulation and measured after 24 hrs in presence of Nrf2 inhibitor TRG by Griess assay. In kind it is functional, cell-based.
The target of assay [22] is T1, Nuclear factor erythroid 2-related factor 2 (Homo sapiens). As to the kind of experiment: Activation of Nrf2 (unknown origin) expressed in HEK293 cells co-transfected with ARE luciferase reporter plasmid after 16 hrs by dual luciferase reporter gene assay. It is filed as cell-based.
Assay [23] has as its target Kelch-like ECH-associated protein 1 (Rattus norvegicus) (UniProt P57790). The assay is described as follows: Binding affinity to Keap1 in rat HBZY-1 cells assessed as disruption of Keap1/Nrf2 complex by measuring reduction in Keap1 protein expression by Western blot analysis. In kind it is cell-based.
For assay [24], the system named is HBZY-1. The assay is described as follows: Cytoprotection against H2O2-induced cell death in rat HBZY-1 cells assessed as increase in cell viability at 6 uM preincubated for 2 hrs followed by H2O2 addition and measured after 24 hrs in presence of Nrf2 inhibitor TRG by MTT assay. In kind it is functional, cell-based.
Assay [25] has as its system HBZY-1. The assay is described as follows: Cytoprotection against H2O2-induced cell death in rat HBZY-1 cells assessed as increase in cell viability at 6 uM preincubated for 2 hrs followed by H2O2 addition and measured after 24 hrs in presence of GCL inhibitor BSO by MTT assay. It is filed as functional, cell-based.
For assay [26], the system named is HBZY-1. The assay is described as follows: Antiinflammatory activity in rat HBZY-1 cells assessed as reduction in NO production at 6 uM preincubated for 30 mins followed by LPS stimulation and measured after 24 hrs in presence of HO-1 inhibitor ZnPP by Griess assay. It is filed as functional, cell-based.
In assay [27] the target is Kelch-like ECH-associated protein 1 (Rattus norvegicus) (UniProt P57790). The assay is described as follows: Binding affinity to Keap1 in rat HBZY-1 cells assessed as induction of Keap1/Nrf2 signaling by measuring increase in GCLC protein expression at 6 uM by Western blot analysis. It is filed as cell-based. The following applies: TDE = time-dependent effect.
The target is the same in assay [28]. The assay is described as follows: Binding affinity to Keap1 in rat HBZY-1 cells assessed as induction of Keap1/Nrf2 signaling by measuring increase in NQO-1 protein expression by Western blot analysis. It is filed as cell-based.
Assay [29] relates to HBZY-1. The assay is described as follows: Antiinflammatory activity in rat HBZY-1 cells assessed as reduction in LPS-induced NO production preincubated for 30 mins followed by LPS stimulation and measured after 24 hrs by Griess assay. In kind it is functional, cell-based.

For the compound `N#C/C(=C\c1ccccc1C(F)(F)F)C(=O)Nc1ccc(F)c(Cl)c1`, the IC50 in the assay with HBZY-1 [1] is over 200 µM. The viability at 6 µM in the assay with HBZY-1 [2] worked out at 80.4%.
As for `CC(C)(C)c1cc(O)ccc1O`, the outcome in assay [3] was Active.
Turning to `CCCCNC(=O)/C(C#N)=C/c1ccccc1C(F)(F)F`, in the assay on HBZY-1 [1], the half-inhibitory concentration (IC50) was over 200 µM. Besides, the viability at 6 µM with HBZY-1 [2] is 65.6 to 96.4%.
`COc1ccccc1NC(=O)/C(C#N)=C/c1ccccc1C(F)(F)F`: the outcome (in assay [4]; in assay [8]; with HBZY-1 [10]; in [11]; in assay [16]; in the assay on HBZY-1 [21]) was inactive. Further, the outcome in the assay on HBZY-1 [24], with HBZY-1 [25] and in the assay with HBZY-1 [26] was inactive. For the same compound, the Activity entry in assay [5] is “Dose-dependent effect”; in [6] it was “Dose-dependent effect”; with HBZY-1 [7] it was “Dose-dependent effect”; in assay [9], “Dose-dependent effect”; in assay [12] it was “Tde”; in assay [13] it was “Dose-dependent effect”. Further, the Activity entry in [14] was “Dose-dependent effect”; in assay [17], “Tde”; in [18] it was “Tde”; in assay [19], “Tde”; in the assay on HBZY-1 [20], “Dose-dependent effect”; in assay [22], “Dose-dependent effect”. Moreover, the Activity entry is “Tde” in [27], “Dose-dependent effect” in assay [28] and “Dose-dependent effect” in the assay with HBZY-1 [29]. In addition, in the assay on HBZY-1 [1], the IC50 was over 200 µM. Moreover, the result in assay [15] and in assay [23] was Active. Further, the viability at 6 µM in the assay on HBZY-1 [2] was in the range of 65.6 to 96.4%.
On to `COc1cc(NC(=O)/C=C/c2ccccc2C(F)(F)F)cc(OC)c1OC`, for which, in the assay with HBZY-1 [1], the 50% inhibitory concentration (IC50) is over 200 µM. Also, in the assay on HBZY-1 [2], the viability at 6 µM lay within 65.6 to 96.4%.
Consider `COc1ccc(NC(=O)/C(C#N)=C/c2ccccc2C(F)(F)F)cc1OC`, for which, in the assay with HBZY-1 [1], the IC50 is over 200 µM. Further, the viability at 6 µM with HBZY-1 [2] was 78.2%.
For `COc1ccccc1NC(=O)/C(C#N)=C/c1ccccc1C`, the IC50 with HBZY-1 [1] was over 200 µM. Also, the viability at 6 µM in the assay with HBZY-1 [2] is 65.6 to 96.4%.
Taken in the same sequence, the figures for `COc1ccc(CNC(=O)/C=C/c2ccccc2C(F)(F)F)cc1` were over 200 µM and 65.6 to 96.4%.
In the case of `COc1ccc(CNC(=O)/C(C#N)=C/c2ccccc2C(F)(F)F)cc1`, in the assay on HBZY-1 [1], the IC50 was over 200 µM. The viability at 6 µM in the assay with HBZY-1 [2] was 80.8%.
Taken in the same sequence, the figures for `COc1ccccc1NC(=O)/C(C#N)=C/c1cccc([N+](=O)[O-])c1` were over 200 µM and 65.6 to 96.4%.
In the same order, the values of `COc1ccc(/C=C(\C#N)C(=O)Nc2ccccc2OC)cc1` are over 200 µM and 65.6 to 96.4%.
For the compound `COc1ccccc1NC(=O)/C(C#N)=C/c1cc(OC)c(OC)c(OC)c1`, the half-inhibitory concentration (IC50) in the assay on HBZY-1 [1] was over 200 µM. Moreover, the viability at 6 µM with HBZY-1 [2] was found to be 78.1%.
In the case of `COc1ccccc1C(=O)/C=C/c1ccccc1C(F)(F)F`, in the assay with HBZY-1 [2], the viability at 6 µM was 80.3%.

For the origin of these results see ChEMBL document CHEMBL4406808, “Synthesis and assessment of phenylacrylamide derivatives as potential anti-oxidant and anti-inflammatory agents” (Eur J Med Chem, 2019).
